Holding throughout (test): growth of human tumour cells (NCI), 48 h
Experiment [1] concerns BT-549 breast.
For experiment [2], the system named is DU-145 prostate.
Experiment [3] concerns HOP-92 NSCLC.
The subject of experiment [4] is HS 578T breast.
Experiment [5] concerns MCF7 breast.
In experiment [6] the test system is OVCAR-4 ovarian.
Experiment [7] concerns RXF 393 renal.
Experiment [8] deals with SNB-19 CNS.
Experiment [9] concerns TK-10 renal.
Experiment [10] concerns UACC-257 melanoma.

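A five-concentration, 48-hour dose response in 96-well plates underlies each endpoint, interpolated linearly between surrounding concentrations. The concentration for 50% growth inhibition is given as GI50. TGI is the concentration that stops growth completely.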

With `COc1cc(/C(=C2/O[C@@H]([C@H]3COC(C)(C)O3)[C@H]3OC(C)(C)O[C@@H]23)c2ccc3ccccc3c2)cc(OC)c1OC`, the GI50 in [1] was 3.22 µM; in experiment [2], 4.33 µM; in experiment [3], 2.67 µM; in experiment [4], 4.44 µM; in experiment [5], 3.59 µM; in [6], 2.82 µM. The GI50 is 2.54 µM in experiment [7], 2.49 µM in [8], 3.2 µM in experiment [9] and 4.28 µM in experiment [10]. Also, the TGI in experiment [1] is 8.1 µM; in experiment [2], above 100 µM; in [3] it was 13.3 µM; in experiment [4], 53.4 µM; in experiment [5], 14.4 µM; in experiment [6] it was 8.02 µM. In addition, the TGI was 5.99 µM in experiment [7], 6.08 µM in experiment [8], 7.2 µM in experiment [9] and 67.9 µM in [10].

On to `COc1cc(C(=O)N2CCN(c3ccccc3)CC2)c2ccccc2n1`, for which the GI50 in experiment [1] was 0.475 µM; in experiment [2], 0.0648 µM; in experiment [3], 1.47 µM; in [4], 0.0387 µM; in experiment [5] it was 0.0386 µM; in experiment [6], 4.27 µM. Besides, the GI50 in [7] is 0.0927 µM; in [8] it was 0.929 µM; in experiment [9], 0.287 µM; in experiment [10], 0.108 µM. Moreover, the TGI in experiment [1] is above 100 µM; in [2] it was 0.468 µM; in experiment [3], 29.2 µM; in experiment [4], 0.387 µM; in experiment [5] it was above 100 µM; in experiment [6], above 100 µM. Moreover, the TGI in experiment [7], in [8], in experiment [9] and in experiment [10] was above 100 µM throughout.

Turning to `C[C@]12CC[C@@H]3c4cc(OC(F)F)c(OS(N)(=O)=O)cc4CC[C@H]3[C@@H]1CC[C@@H]2OS(N)(=O)=O`, the GI50 is 3.19 µM in experiment [1]; 1.47 µM in [2]; 1.15 µM in experiment [3]; 1 µM in experiment [4]; 1.09 µM in [5]; 5.33 µM in [6]. For the same compound, the GI50 in experiment [7] is 4.16 µM; in [8], 1.48 µM; in [9] it was 13.6 µM; in experiment [10], 5.87 µM. Also, the TGI is 20.4 µM in experiment [1]; 22.4 µM in [2]; 10.6 µM in [3]; 16.1 µM in [4]; 19.2 µM in [5]; 29.5 µM in experiment [6]. Moreover, the TGI was found to be 16.1 µM in experiment [7], 21.8 µM in [8], 49.1 µM in experiment [9] and 24.8 µM in experiment [10].

Take `Cn1cc(C2=C(c3c4n(c5ccccc35)CCC(CN)C4)C(=O)NC2=O)c2ccccc21` (centres undefined): the GI50 in experiment [1] was 4.06 µM; in [2] it was 3.63 µM; in experiment [3] it was 5.25 µM; in experiment [4], 1.55 µM; in experiment [5], 2.06 µM; in [6] it was 2.5 µM. Also, the GI50 is 3.01 µM in experiment [7], 3.96 µM in experiment [8], 2.62 µM in [9] and 3.23 µM in experiment [10]. Also, the TGI in [1] came out at 7.75 µM; in [2], 7.02 µM; in experiment [3], 12.3 µM; in experiment [4], 8.2 µM; in experiment [5], 6.5 µM; in [6], 7.42 µM. Moreover, the TGI was 6.47 µM in [7], 9.26 µM in experiment [8], 5.58 µM in experiment [9] and 6.68 µM in [10].

Turning to `C#CCN(Cc1nc2cc(C(F)(F)F)ccc2nc1-c1ccccc1)c1ccc(C)cc1`, the GI50 in experiment [1] was 22.2 µM; in [2], above 34.5 µM; in experiment [3], 31.7 µM; in [4], 10.2 µM; in experiment [5] it was 2.38 µM; in experiment [6] it was above 24.9 µM. Also, the GI50 was 4.18 µM in [7], 6.2 µM in experiment [8], 15.4 µM in [9] and 19.5 µM in experiment [10]. The TGI in experiment [1] was 69.9 µM; in experiment [2], above 77.9 µM; in experiment [3], above 84.8 µM; in experiment [4], above 54.4 µM; in experiment [5], above 59.1 µM; in experiment [6], above 43.2 µM. The TGI in experiment [7] was 28 µM; in experiment [8] it was above 36.1 µM; in [9], above 39.6 µM; in [10] it was 59 µM.

On to `COCCNc1ccc2c3c(cccc13)C(=O)N(CCN(C)C)C2=O`, for which the GI50 was 10.7 µM in experiment [1]; 9.41 µM in [2]; 10.2 µM in experiment [3]; 9.38 µM in experiment [4]; 6.5 µM in experiment [5]; 11.8 µM in [6]. The GI50 was 5.07 µM in experiment [7], 4.11 µM in [8], 4.2 µM in experiment [9] and 7.23 µM in experiment [10]. Further, the TGI in experiment [1] was above 25 µM; in experiment [2], above 25 µM; in [3] it was above 25 µM; in [4], above 25 µM; in [5], 23.4 µM; in [6] it was above 25 µM. Besides, the TGI was 16.9 µM in [7], above 25 µM in experiment [8], 22.1 µM in experiment [9] and above 25 µM in [10].

Take `Cc1cc(O)cc(C)c1/C=C/c1cncc(C(N)=O)c1`: the GI50 was 4.51 µM in experiment [1]; 5.15 µM in [2]; 1.5 µM in experiment [3]; 1.72 µM in experiment [4]; 1.2 µM in experiment [5]; 14.5 µM in experiment [6]. For the same compound, the GI50 was 2.36 µM in experiment [7], 4.34 µM in experiment [8], 5.99 µM in experiment [9] and 3.37 µM in [10]. In addition, the TGI in [1] is above 25 µM; in experiment [2], above 25 µM; in [3], above 14.7 µM; in experiment [4] it was 11.2 µM; in [5], above 25 µM; in experiment [6], above 25 µM. Further, the TGI in [7] was 13 µM; in experiment [8], above 25 µM; in experiment [9], above 25 µM; in experiment [10], above 25 µM.

Take `C=C1C(=O)O[C@H]2[C@H]1CC/C(C=Nc1c(N)cc(C(F)(F)F)cc1C(F)(F)F)=C\CC[C@@]1(C)O[C@@H]21`: the GI50 is 1.47 µM in [1]; 1.63 µM in [2]; 1.22 µM in experiment [3]; 1.67 µM in experiment [4]; 0.498 µM in experiment [5]; 1.52 µM in experiment [6]. The GI50 in experiment [7] was 1.24 µM; in experiment [8], 1.93 µM; in experiment [9] it was 1.38 µM; in experiment [10] it was 1.59 µM. In addition, the TGI was determined as 3.17 µM in experiment [1]; 3.09 µM in [2]; 3.09 µM in experiment [3]; 7.45 µM in experiment [4]; 2.34 µM in experiment [5]; 3.05 µM in experiment [6]. The TGI came out at 2.74 µM in experiment [7], 4.98 µM in experiment [8], 2.69 µM in experiment [9] and 3.14 µM in experiment [10].

For `Cn1nc(C(F)(F)F)cc1-c1c[nH]c(OCc2ccc(Cl)cc2)c(-c2ccc(Cl)c(C(F)(F)F)c2)c1=O`, the GI50 in experiment [1] was 1.04 µM; in experiment [2] it was 1.64 µM; in experiment [3], 0.224 µM; in [4], 1.07 µM; in experiment [5] it was 1.22 µM; in [6], 1.43 µM. The GI50 in [7] was 1.13 µM; in experiment [8], 1.63 µM; in experiment [9] it was 1.8 µM; in [10], 0.919 µM. Also, the TGI was 3.31 µM in [1]; above 50 µM in [2]; 1.54 µM in [3]; 3.85 µM in [4]; above 50 µM in experiment [5]; above 50 µM in [6]. In addition, the TGI in experiment [7] was 3.4 µM; in experiment [8], above 50 µM; in experiment [9] it was above 36.6 µM; in [10], 3.6 µM.

`O=C(O)C(C(=O)O)P(=S)(S)c1ccccc1` (centres undefined): the TGI in experiment [1], in experiment [2], in experiment [3], in experiment [4], in experiment [5] and in experiment [6] was above 100 µM each time. Further, the TGI in experiment [7], in [8], in experiment [9] and in experiment [10] was above 100 µM each time.

Take `CCCCCCCCC/C(=N\NC(=O)c1ccncc1)c1ccc(O)c(O)c1O`: the GI50 in experiment [1] was 0.36 µM; in experiment [2], 0.274 µM; in experiment [3], 0.385 µM; in experiment [5], 0.309 µM; in [6], 0.12 µM; in experiment [7] it was 0.168 µM. The values for the GI50 in experiment [8], in experiment [9] and in experiment [10] were 0.272 µM, 0.196 µM and 0.293 µM, respectively. The TGI in experiment [1] is 67.2 µM; in [2] it was above 100 µM; in [3], above 100 µM; in experiment [4] it was above 100 µM; in experiment [5], 18.3 µM; in experiment [6] it was 18 µM. In addition, the TGI in experiment [7] was 5.2 µM; in experiment [8], above 100 µM; in experiment [9], above 100 µM; in experiment [10], 9.32 µM.

These data come from PubChem BioAssay (NCI).
